US8436047B2, “Preventive or ameliorating agent for liver disease involving hepatopathy” (Suntory Holdings Limited, priority 2004, dated 2013)

Test system: hepatopathy induced by galactosamine (GalN/LPS)
Assay: Evaluation of 5,8,11-eicosatrienoic acid ethyl ester in an animal model of hepatopathy: serum GOT after GalN/LPS
Format: in vivo
Conditions: male ddY mice, 10 mg/kg orally for one week, then GalN 800 mg/kg / LPS 25 μg/kg i.p., blood six hours after; control group 1024±94 IU/L
Procedure: Four-week-old male ddY mice were orally given 10 mg/kg of 5,8,11-eicosatrienoic acid ethyl ester (mead acid) purified from the lipid SUNTGM17 prepared in Reference Example 1 for one week, and then they were intraperitoneally given physiological saline in which D-galactosamine and lipopolysaccharide were dissolved to 800 mg/kg and 25 μg/kg and mixed (GalN/LPS). Six hours after the GalN/LPS administration, blood was drawn, serum was separated, and GPT and GOT activities in the serum were determined, which confirmed that the GOT activity was 1024±94 IU/L in the control diet group, whereas it was 413±37 IU/L in the mead acid diet group, indicating a significant suppression of hepatopathy.

Compound: CCCCCCCCC=CCC=CCC=CCCCC(=O)OCC [5,8,11-eicosatrienoic acid ethyl ester]
- GOT activity in the serum: 413±37 IU/L
